The source of these data is paper PMC4364556, “Comparative Distribution and In Vitro Activities of the Urotensin II-Related Peptides URP1 and URP2 in Zebrafish: Evidence for Their Colocalization in Spinal Cerebrospinal Fluid-Contacting Neurons” (PLoS ONE, 2015).

This assay addresses T1, human UII receptor (hUT) (Homo sapiens, UniProt Q9UKP6).
T1 construct: expressed in transfected cells
T1 sequence (Q9UKP6 1-389): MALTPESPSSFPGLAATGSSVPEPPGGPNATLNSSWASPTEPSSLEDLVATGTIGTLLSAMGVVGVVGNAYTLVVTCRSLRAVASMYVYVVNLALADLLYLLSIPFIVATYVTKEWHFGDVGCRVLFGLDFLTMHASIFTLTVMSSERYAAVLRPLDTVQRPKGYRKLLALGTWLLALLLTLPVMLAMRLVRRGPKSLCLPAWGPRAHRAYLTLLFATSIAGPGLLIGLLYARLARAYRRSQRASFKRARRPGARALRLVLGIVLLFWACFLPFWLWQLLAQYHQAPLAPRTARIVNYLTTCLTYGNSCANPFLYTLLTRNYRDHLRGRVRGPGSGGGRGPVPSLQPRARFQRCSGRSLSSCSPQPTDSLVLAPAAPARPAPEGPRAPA
Kind of assay: Intracellular calcium mobilization assay (hUT-CHO cells). The class given is cell-based. Particulars: for EC50: agonist, CHO cells stably transfected with human UT, Fluo-4 AM, 37°C, fluorescence 485/525 nm, 180 sec, peptides 10^-12 to 10^-6 M, peak fluorescence, four-parameter logistic, mean ± SEM of 7–13 independent experiments, read-out: pEC50, intracellular calcium mobilization (converted); for comparison of potency of URP1 and URP2 to activate the hUT: URP1 vs URP2; for times less potent than hUII to mobilize intracellular calcium: compared with hUII pEC50 = […]; for efficacy, increase in intracellular calcium: percentages of the baseline (baseline normalized to 100%), Fluo-4 AM peak fluorescence, similar to efficacies evoked by hUII and mURP, approximate ('around'). As to the method: CHO cells stably transfected with the human UII receptor (hUT-CHO) (Chatenet et al. 2004) were plated at a density of 4 x 10^4 cells/well in flat clear bottom black 96-well plates. Measures of intracellular calcium mobilization were performed as previously described (Dubessy et al. 2008) with slight modifications. Briefly, after 24 h in culture, cells were incubated for 1 h in a humidified incubator (37°C, 5% CO2) with 2 μM Fluo-4 acetoxymethyl ester (AM) calcium dye (Life Technologies) in Hank’s Buffer Saline Solution (HBSS; Life Technologies) buffered with 5 mM HEPES and supplemented with 2.5 mM probenecid (Sigma-Aldrich, Saint-Quentin Fallavier, France). Cells were washed twice with HBSS/HEPES/probenecid to remove Fluo-4 AM from the incubation medium and incubated in 150 μl of the same medium at 37°C for 15 min. Fluorescence was recorded using a Flexstation 3 fluorescence plate reader system (Molecular Devices, Saint-Grégoire, France) during 180 sec with an excitation wavelength of 485 nm, an emission wavelength of 525 nm and a cutoff filter of 515 nm. After 18 sec recording in basal conditions, 50 μl of graded concentration (10^-12 to 10^-6 M) of different peptides (4-fold final concentration) was added to the incubation medium with the built-in 8 channel pipettor at a rate of 47 μl/sec to assess their agonistic activity. After subtraction of mean fluorescence background from control wells without Fluo-4 AM, baseline was normalized to 100% and fluorescence peak values were determined for each concentration of peptide. Potency (EC50) and efficacy (Emax) were calculated with the Prism 5.0 software (GraphPad Software In., La Jolla, CA, USA) using a four-parameter logistic equation to fit peak fluorescence data.
For intracellular calcium mobilization assays, results from 7–13 independent experiments were expressed as mean ± SEM of Log(EC50) and plotted with box and whiskers. The normality of each data set was verified with the Shapiro-Wilk’s test and a one-way ANOVA test followed by a Tukey’s multiple comparison test to compare Log(EC50) between each peptide. Differences were considered significant where P<0.05.

Setting [1] is: hUT-CHO cells, one-way ANOVA followed by Tukey's test on Log(EC50).

Each structure is given as a SMILES string. Where a SMILES comes first, the peptide text is derived from it. Bridges are numbered along the chain shown (N, C = ends).

Consider `CC(C)[C@H](NC(=O)[C@@H]1CSSC[C@H](NC(=O)[C@H](C)N)C(=O)N[C@@H](Cc2ccccc2)C(=O)N[C@@H](Cc2c[nH]c3ccccc23)C(=O)N[C@@H](CCCCN)C(=O)N[C@@H](Cc2ccc(O)cc2)C(=O)N1)C(=O)N[C@H](C(=O)N[C@@H](CC(N)=O)C(=O)O)[C@@H](C)O` [URP1] (H-ACFWKYCVTN-OH; disulfide 2-7), for which the EC50 was 10.2 nM. Under setting [1], the “comparison of potency of URP1 and URP2 to activate the hUT” value is “equipotent to activate the hUT”. Moreover, where the note is “hUT-CHO cells”, the “times less potent than hUII to mobilize intracellular calcium” value amounted to 28 times and the “efficacy, increase in intracellular calcium” value is 200–250%.
`CC(C)[C@H](NC(=O)[C@@H]1CSSC[C@H](NC(=O)[C@H](C)N)C(=O)N[C@@H](Cc2ccccc2)C(=O)N[C@@H](Cc2c[nH]c3ccccc23)C(=O)N[C@@H](CCCCN)C(=O)N[C@@H](Cc2ccc(O)cc2)C(=O)N1)C(=O)O` [mURP, reference compound]: the EC50 was 2.45 nM. In addition, the “potency compared with the other tested peptides” value (hUT-CHO cells, vs hUII, URP1 and URP2, one-way ANOVA followed by Tukey's test on Log(EC50), P<0.05) was “intermediate potency”.
Consider `CC(C)[C@H](N)C(=O)N[C@H]1CSSC[C@@H](C(=O)N[C@@H](CO)C(=O)N[C@@H](CCC(N)=O)C(=O)N[C@@H](CC(N)=O)C(=O)O)NC(=O)[C@H](Cc2ccc(O)cc2)NC(=O)[C@H](CCCCN)NC(=O)[C@H](Cc2c[nH]c3ccccc23)NC(=O)[C@H](Cc2ccccc2)NC1=O` [URP2] (H-VCFWKYCSQN-OH; disulfide 2-7), for which the EC50 is 30.2 nM. For the same compound, the “comparison of potency of URP1 and URP2 to activate the hUT” value under setting [1] is “equipotent to activate the hUT”. In addition, where the note is “hUT-CHO cells”, the “times less potent than hUII to mobilize intracellular calcium” value was 83 times and the “efficacy, increase in intracellular calcium” value is listed as 200–250%.
